Laboratory results reported in the METLIN SMRT retention time set (Domingo-Almenara et al. 2019).

Assay: gradient 5% acetonitrile 3 min, to 50% in 2 min, to 85% in 15 min, held 3 min, 100 µL/min
Settings: column: Zorbax Extend-C18 2.1 x 50 mm; eluents: water / acetonitrile, 0.1% formic acid
Summary of the method: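 Pure standards were analyzed in mixtures of ~100 molecules using HPLC coupled to a quadrupole time-of-flight mass spectrometer, in both positive and negative ionization mode. Separation used a Zorbax Extend-C18 column (2.1 × 50 mm, 1.8 μm) at 100 μL/min, with water and acetonitrile each containing 0.1% formic acid. Dead and dwell volumes were 40 μL and 900 μL, and data were collected over 3 months. Retention time was read from computationally picked adduct peaks, each inspected manually.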

| SMILES | RP-LC retention time [s] |
| --- | --- |
| CCCNC(=O)c1cn(-c2ccc(-c3nc(CC)no3)cn2)cn1 | 777 |
| O=C(c1c[nH]c2ccccc12)N1CCN(c2cc(-c3cccs3)[nH]n2)CC1 | 731 |
| CC(=O)C1=C(C)N(CC2CCCO2)C(=O)C1(NC(=O)c1ccc(C(C)(C)C)cc1)C(F)(F)F (stereo not given) | 1050 |
| CC(=O)N(Cc1nn(C)c2c1CN(S(=O)(=O)c1cc(C)ccc1C)CC2)c1ccccc1 | 856 |
| O=c1ccc(-c2ccccc2)nn1Cc1nc(-c2ccc3c(c2)OCO3)no1 | 959 |
| CCn1ccc2sc(C)c(C(=O)NC(C)c3ccc(F)cc3)c2c1=O (stereo not given) | 808 |
| CC1(C)CC(=O)c2cn(-c3ccc(F)cc3)c(=O)c(C(=O)Nc3cccnc3)c2C1 | 707 |
| CCCS(=O)(=O)NCCNc1cc(-n2nc(C)cc2C)ncn1 | 679 |
| Fc1cccc(-c2noc(-c3ccc(N4CCN(c5ncccn5)CC4)nc3)n2)c1 | 1230 |
| COc1ccccc1N1CCN(c2ncc(S(=O)(=O)c3ccccc3)c(N)n2)CC1 | 903 |
| COc1cccc(CNC(=O)CCNc2cnc3cnccn23)c1 | 585 |
| COc1ccc(OC)c(S(=O)(=O)N2CCC3(C2)C(=O)N(C)c2ccccc23)c1 (stereo not given) | 853 |
| COC(=O)c1ncn2c1C(=O)N(c1cc(C)cc(C)c1)C(C)(C(=O)NCc1ccccc1)C2 (stereo not given) | 747 |
| COCCCNc1ncc(C(=O)O)c(-c2ccccc2)n1 | 804 |
| CCC1Oc2ccc(C)cc2N(CC(=O)NCCN(C)C)C1=O (stereo not given) | 631 |
| Cc1nc(NC(=O)C2CCCN(c3ccc(-n4cccn4)nn3)C2)sc1C (stereo not given) | 699 |
| Cc1ccc(-c2ccnc3c(C(=O)NCCc4c[nH]c5ccccc45)cnn23)cc1C | 1070 |
| CCCN(CCC)C(=O)C1CCC(=O)N1S(=O)(=O)c1ccc(C)cc1 (stereo not given) | 943 |
| O=c1cc(O)cc(/C=C/c2ccc(O)c(O)c2)o1 | 680 |
| Cc1ccc(C)c(N2CCN(C(=O)Cc3csc4nc(-c5ccc(C)c(C)c5)cn34)CC2)c1 | 1120 |
| O=C(O)CCc1conc1-c1cccc(F)c1 | 729 |
| CCOC(=O)c1noc2ncnc(Nc3cc(C)ccc3OC)c12 | 1060 |
| CCN1C(=O)C2(CCN(C(=O)NCCC(C)C)CC2)c2ccccc21 | 854 |
| CSc1ccccc1NC(=O)c1c(C)sc2ncnc(N3CCCC(C)C3)c12 (stereo not given) | 1210 |
| COc1ccc(-c2noc(C3CC(=O)N(c4cc(Cl)ccc4OC)C3)n2)cc1OC (stereo not given) | 884 |
| COc1ccc2c(C)c(CCC(=O)N[C@H](C(=O)O)c3ccccc3)c(=O)oc2c1 | 744 |
| Cc1ccc(C)c(NC(=O)Cn2ccc3ccn(C)c3c2=O)c1 | 784 |
| CSc1ccc(NC(=O)C2CCN(C(=O)c3ncn4c3COC(c3ccc(F)cc3)C4)CC2)cc1 (stereo not given) | 864 |

| SMILES | RP-LC retention time [s] |
| --- | --- |
| O=C(Nc1ccccc1F)c1cccn1Cc1noc(-c2ccccc2)n1 | 1010 |
| O=C(CCc1c(-c2ccccc2)nc2ccccn12)Nc1ccccc1Cl | 668 |
| CCOc1ccc(NC(=O)c2cnc3c(c2)c(=O)n(C)c(=O)n3C)cc1 | 704 |
| O=S(=O)(NCCN1CCOC(c2ccccc2)C1)c1ccc2c(c1)CCCC2 (stereo not given) | 632 |
| N#Cc1ccccc1Cn1cnc2nc3c(cc2c1=O)CCCC3 | 733 |
| O=c1c2cc(-c3cccs3)nn2cnn1Cc1nc(-c2ccc(OCc3ccccc3)cc2)no1 | 1220 |
| Cc1cccc(OCc2ccc(-c3nc(C#N)c(NCCCN(C)C)o3)o2)c1 | 728 |
| Nc1ccc(CC(CC(=O)O)C(=O)O)cc1 (stereo not given) | 850 |
| O=c1cc(CO)oc(C(Nc2ccccn2)c2cccc(F)c2)c1O (stereo not given) | 542 |
| COc1cccc(-c2csc(-c3nnn(-c4ccccc4)c3N)n2)c1 | 1040 |
| O=C1CCc2cc(S(=O)(=O)NCCCc3ccccc3)cc3c2N1CCC3 | 879 |
| Cc1ccc(CNS(=O)(=O)c2cc(-c3nc(C)c(C)s3)cs2)cc1 | 1040 |
| CC(=O)N1CCc2c([nH]c3ccccc23)C12C(=O)N(C)c1ccc(Br)cc12 (stereo not given) | 857 |
| CCc1ccc(NC(=O)Cn2c(-c3cnccn3)nc(C)c(C)c2=O)cc1 | 792 |
| CCOc1ccc2nc(C(=O)NCc3cccc(Br)c3)cn2n1 | 944 |
| CCC(CC)C(=O)Nc1nc(-c2ccc3c(c2)NC(=O)CO3)c(C)s1 | 910 |
| COc1ccc(-c2nc3nc(C)cc(C)n3c2Nc2c(C)cccc2C)cc1 | 766 |
| COc1cccc(OC)c1C(=O)N1CCCC1c1cc(C(C)C)on1 (stereo not given) | 794 |
| CCN(Cc1ccc(F)cc1)Cc1cc(=O)n2cc(Cl)ccc2n1 | 578 |
| CCCCCCCCc1ccc(CCC(N)(CO)CO)cc1 | 966 |
| COc1cc(OC)cc(C(=O)N2CCn3cnnc3C2)c1 | 578 |
| CN(CC1CCOCC1)C(=O)Cc1ccccc1Cl | 771 |
| CCOc1ccc(-c2cn3ccn(-c4ccc(OC)c(OC)c4)c(=O)c3n2)cc1 | 781 |
| Clc1ccccc1-c1nc(N2CCCC2)c2ccccc2n1 | 696 |
| CCOc1cccc(C2c3[nH]c4ccccc4c3CCN2C(=O)c2cccs2)c1 (stereo not given) | 1110 |
| COc1ccc(Br)cc1CNC(=O)Cn1cnc2onc(C)c2c1=O | 815 |
| O=C(CSc1nccnc1N1CCN(c2ccccc2)CC1)Nc1ccc(F)cc1F | 1110 |

Other lines, results leading:

| RP-LC retention time [s] | SMILES |
| --- | --- |
| 757 | CCC(=O)N1CCc2cc(C(=O)NCc3ccc(C)o3)ccc21 |
| 806 | CCOc1cc(=O)n2c(c1C(=O)Nc1cc(Cl)ccc1F)CCCC2 |
| 753 | Cn1cc(CN2CCC(C(=O)NCCCc3ccccc3)CC2)c2cc(Cl)ccc21 |
| 767 | Cc1cc2c(=O)n(CC(=O)N3CCCc4ccccc43)c3cccnc3n2n1 |
| 738 | CC(=O)N1CCC2(CC1)OC(=O)C(C)=C2C(=O)NCCC1=CCCCC1 |
| 1030 | O=S(=O)(c1ccc2nc(N3CCN(c4ccccc4)CC3)ccc2c1)N1CCCCC1 |
| 581 | CNC(=O)C1CCN(Cc2noc(-c3ccc(F)cc3)n2)CC1 |
| 1120 | COc1cccc(S(=O)(=O)N2CCC(c3noc(-c4ccccc4)n3)CC2)c1 |
| 566 | O=C(CSc1ccc(F)cc1)NCC1CCN(Cc2cccs2)CC1 |
| 683 | CNC(=O)C1CCN(Cc2cc3ccccc3n2Cc2cccc(Cl)c2)CC1 |
| 581 | O=C(O)C1CCN(C(=O)Cc2n[nH]c(=O)c3ccccc23)CC1 |
| 596 | O=C(Cn1c(=O)ccc2cc(S(=O)(=O)N3CCCC3)ccc21)N1CCN(c2ccccn2)CC1 |
| 694 | O=C(Nc1cnc(N2CCN(CCOc3ccc(Cl)cc3)CC2)c(C(=O)O)c1)c1ccc(F)cc1 |
| 727 | Cc1cc(C(=O)N2CCC(c3nc(-c4ccccc4)no3)C2)n[nH]1 (stereo not given) |
| 652 | COc1ccc(CNC(=O)N2CCC(c3noc(-c4cnccn4)n3)C2)cc1 (stereo not given) |
| 693 | Cc1nc(N2CCN(CCO)CC2)nc2c1C(=O)CC(c1cccc(Cl)c1)C2 (stereo not given) |
| 696 | CCOC(=O)Cn1cc(S(=O)(=O)N2CCCC2)ccc1=O |
| 917 | O=C(c1cccc(Cl)c1)N1CCN(c2cc(-c3ccc(Cl)cc3)[nH]n2)CC1 |

| RP-LC retention time [s] | SMILES |
| --- | --- |
| 755 | COc1cc(C(CC(=O)NC2CCCC2)N2Cc3ccccc3C2=O)cc(OC)c1OC (stereo not given) |
| 872 | O=C(NCC1CCCCC1)c1ccc2c(c1)nc1n2CCN(C2CCCCC2)C1=O |
| 650 | CCN1CCC2(CC1)OC(=O)C(C)=C2C(=O)Nc1ccc(Br)cc1F |
| 628 | COc1ccc(NC(=O)c2c(OC)cc(=O)n3c2CCCC3)cc1OC |
| 724 | Cc1csc(-c2cc(S(=O)(=O)N3CCN(CC(C)C)CC3)cn2CC(=O)N2CCCCC2)n1 |
| 721 | CCn1ccc(C(=O)N2CCN(c3nc4cccnc4n(C)c3=O)CC2)n1 |
| 676 | CC(=O)N1CCc2cc(-c3ccc(C(=O)NC4CCS(=O)(=O)C4)cc3)ccc21 (stereo not given) |
| 613 | Cc1nc(N2CCOCC2)c2c(C(=O)NCC3CCN(Cc4ccccc4Cl)CC3)c(C)oc2n1 |
| 658 | CC(C)NC(=O)N1CCCC(c2nc(C(C)C)no2)CCNC(=O)CC1 (stereo not given) |
| 1030 | CCc1nc(-c2cc(S(=O)(=O)N3CCC(C(=O)N4CCCCCC4)CC3)c(C)s2)no1 |
| 609 | CCc1nnc2nc(N3CCN(C(=O)c4ccc(N(C)C)cc4)CC3)cc(C)n12 |
| 830 | COCCOCc1nc(C2CCCN2S(=O)(=O)c2cc(F)ccc2F)no1 (stereo not given) |
| 566 | Cc1cc(N2CCN(C(=O)C3CCC3)CC2)nc2nncn12 |
| 758 | CCCCNC(=O)C1CCc2nc(N3CCC(C)CC3)ncc2C1 (stereo not given) |
| 664 | Cc1noc(C)c1CC(=O)NCC1Cn2cccc2C(=O)N1CC(C)C (stereo not given) |
| 644 | Cc1noc(C)c1CCC(=O)N(C)C1CCc2nn(CC3CC3)c(=O)n2CC1 (stereo not given) |
| 575 | O=C(c1cc(-c2ccncc2)n[nH]1)N1CCC(C(=O)N2CCN(c3ncccn3)CC2)CC1 |
